In article PMC10866072, “Design, synthesis, molecular modelling and biological evaluation of novel 6-amino-5-cyano-2-thiopyrimidine derivatives as potent anticancer agents against leukemia and apoptotic inducers” (Journal of Enzyme Inhibition and Medicinal Chemistry, 2024):

Assays:
[1] = system: CCRF-CEM; format: cell-based; conditions: one dose 10^-5 M, 48 h
[2] = system: HL-60(TB); format: cell-based; conditions: one dose 10^-5 M, 48 h
[3] = system: K-562; format: cell-based; conditions: 48 h
[4] = system: MOLT-4; format: cell-based; conditions: one dose 10^-5 M, 48 h
[5] = system: RPMI-8226; format: cell-based; conditions: one dose 10^-5 M, 48 h
[6] = system: SR; format: cell-based; conditions: one dose 10^-5 M, 48 h
[7] = system: A549/ATCC; format: cell-based; conditions: one dose 10^-5 M, 48 h
[8] = system: EKVX; format: cell-based; conditions: one dose 10^-5 M, 48 h
[9] = system: HOP-62; format: cell-based; conditions: one dose 10^-5 M, 48 h
[10] = system: HOP-92; format: cell-based; conditions: one dose 10^-5 M, 48 h
[11] = system: NCI-H226; format: cell-based; conditions: one dose 10^-5 M, 48 h
[12] = system: NCI-H23; format: cell-based; conditions: one dose 10^-5 M, 48 h
[13] = system: NCI-H460; format: cell-based; conditions: one dose 10^-5 M, 48 h
[14] = system: NCI-H522; format: cell-based; conditions: one dose 10^-5 M, 48 h
[15] = system: COLO 205; format: cell-based; conditions: one dose 10^-5 M, 48 h
[16] = system: HCC-2998; format: cell-based; conditions: one dose 10^-5 M, 48 h
[17] = system: HCT-116; format: cell-based; conditions: one dose 10^-5 M, 48 h
[18] = system: HCT-15; format: cell-based; conditions: one dose 10^-5 M, 48 h
[19] = system: HT29; format: cell-based; conditions: 48 h
[20] = system: KM12; format: cell-based; conditions: one dose 10^-5 M, 48 h
[21] = system: SW-620; format: cell-based; conditions: one dose 10^-5 M, 48 h
[22] = system: SF-268; format: cell-based; conditions: one dose 10^-5 M, 48 h
[23] = system: SF-295; format: cell-based; conditions: one dose 10^-5 M, 48 h
[24] = system: SF-539; format: cell-based; conditions: one dose 10^-5 M, 48 h
[25] = system: SNB-19; format: cell-based; conditions: one dose 10^-5 M, 48 h
[26] = system: U251; format: cell-based; conditions: 48 h
[27] = system: LOX IMVI; format: cell-based; conditions: one dose 10^-5 M, 48 h
[28] = system: MALME-3M; format: cell-based; conditions: one dose 10^-5 M, 48 h
[29] = system: M14; format: cell-based; conditions: one dose 10^-5 M, 48 h
[30] = system: MDA-MB-435; format: cell-based; conditions: one dose 10^-5 M, 48 h
[31] = system: SK-MEL-2; format: cell-based; conditions: one dose 10^-5 M, 48 h
[32] = system: SK-MEL-28; format: cell-based; conditions: one dose 10^-5 M, 48 h
[33] = system: SK-MEL-5; format: cell-based; conditions: one dose 10^-5 M, 48 h
[34] = system: UACC-257; format: cell-based; conditions: one dose 10^-5 M, 48 h
[35] = system: UACC-62; format: cell-based; conditions: one dose 10^-5 M, 48 h
[36] = system: IGROV1; format: cell-based; conditions: 48 h
[37] = system: OVCAR-3; format: cell-based; conditions: one dose 10^-5 M, 48 h
[38] = system: OVCAR-4; format: cell-based; conditions: one dose 10^-5 M, 48 h
[39] = system: OVCAR-5; format: cell-based; conditions: one dose 10^-5 M, 48 h
[40] = system: OVCAR-8; format: cell-based; conditions: one dose 10^-5 M, 48 h
[41] = system: NCI/ADR-RES; format: cell-based; conditions: one dose 10^-5 M, 48 h
[42] = system: SK-OV-3; format: cell-based; conditions: one dose 10^-5 M, 48 h
[43] = system: 786-0; format: cell-based; conditions: one dose 10^-5 M, 48 h
[44] = system: A498; format: cell-based; conditions: one dose 10^-5 M, 48 h
[45] = system: ACHN; format: cell-based; conditions: one dose 10^-5 M, 48 h
[46] = system: CAKI-1; format: cell-based; conditions: one dose 10^-5 M, 48 h
[47] = system: RXF 393; format: cell-based; conditions: one dose 10^-5 M, 48 h
[48] = system: SN12C; format: cell-based, human; conditions: one dose 10^-5 M, 48 h
[49] = system: TK-10; format: cell-based; conditions: one dose 10^-5 M, 48 h
[50] = system: UO-31; format: cell-based; conditions: one dose 10^-5 M, 48 h
[51] = system: PC-3; format: cell-based; conditions: one dose 10^-5 M, 48 h
[52] = system: DU-145; format: cell-based; conditions: one dose 10^-5 M, 48 h
[53] = system: MCF7; format: cell-based; conditions: one dose 10^-5 M, 48 h
[54] = system: MDA-MB-231/ATCC; format: cell-based; conditions: one dose 10^-5 M, 48 h
[55] = system: HS 578T; format: cell-based; conditions: one dose 10^-5 M, 48 h, HS 578T
[56] = system: BT-549; format: cell-based; conditions: one dose 10^-5 M, 48 h
[57] = system: T-47D; format: cell-based; conditions: one dose 10^-5 M, 48 h
[58] = system: MDA-MB-468; format: cell-based; conditions: one dose 10^-5 M, 48 h
[59] = system: full NCI 60 cell lines panel; conditions: for activity on all 60 cancer cell lines tested (in words): one dose
[60] = Homo sapiens, read-out: % growth

With “3-Amino-4–(2,4-dichlorophenyl)-1H-pyrazolo[3,4-d] pyrimidine-6-thiol [Compound 3c]” the “% growth” value [1] was 94.56%, the “% growth” value [2] was 89.08% and the “% growth” value ([3]; one dose 10^-5 M) was 105.30%. The “% growth” value [4] was 90.06%, the “% growth” value [5] was 108.63% and the “% growth” value [6] was 97.30%. For the same compound, the “% growth” value [7] was 104.45%, the “% growth” value [8] was 115.88% and the “% growth” value [9] was 92.49%. The “% growth” value [10] was 76.20%, the “% growth” value [11] was 106.10% and the “% growth” value [12] was 103.34%. For the same compound, the “% growth” value [13] was 115.81%, the “% growth” value [14] was 95.34% and the “% growth” value [15] was 120.01%. For the same compound, the “% growth” value [16] was 103.06%, the “% growth” value [17] was 112.94% and the “% growth” value [18] was 111.27%. For the same compound, the “% growth” value ([19]; one dose 10^-5 M) was 110.65%, the “% growth” value [20] was 104.75% and the “% growth” value [21] was 106.47%. For the same compound, the “% growth” value [22] was 108.35%, the “% growth” value [23] was 94.52% and the “% growth” value [24] was 94.60%. For the same compound, the “% growth” value [25] was 93.39%, the “% growth” value ([26]; one dose 10^-5 M) was 103.99% and the “% growth” value [27] was 106.21%. For the same compound, the “% growth” value [28] was 92.32%, the “% growth” value [29] was 106.66% and the “% growth” value [30] was 110.71%. For the same compound, the “% growth” value [31] was 108.60%, the “% growth” value [32] was 115.84% and the “% growth” value [33] was 108.42%. The “% growth” value [34] was 107.51%, the “% growth” value [35] was 93.81% and the “% growth” value ([36]; one dose 10^-5 M) was 105.59%. The “% growth” value [37] was 109.08%, the “% growth” value [38] was 105.05% and the “% growth” value [39] was 108.30%. The “% growth” value [40] was 109.69%, the “% growth” value [41] was 114.09% and the “% growth” value [42] was 86.72%. For the same compound, the “% growth” value [43] was 100.98%, the “% growth” value [44] was 125.09% and the “% growth” value [45] was 106.88%. For the same compound, the “% growth” value [46] was 96.86%, the “% growth” value [47] was 114.73% and the “% growth” value [48] was 105.03%. For the same compound, the “% growth” value [49] was 146.75%, the “% growth” value [50] was 85.75% and the “% growth” value [51] was 96.81%. For the same compound, the “% growth” value [52] was 119.84%, the “% growth” value [53] was 95.64% and the “% growth” value [54] was 94.87%. The “% growth” value [55] was 100.24%, the “% growth” value [56] was 100.27% and the “% growth” value [57] was 92.59%. For the same compound, the “% growth” value [58] was 110.26%, the “activity on all 60 cancer cell lines tested (in words)” value [59] was “weak activity” and the Mean % growth ([59]; one dose 10^-5 M, 48 h, mean over all cell lines) was 104.17%.
`CN(C)c1ccc(-c2nc(S)nc(N)c2-c2ncn[nH]2)cc1` [Compound 5a, 4-Aamino-6-[4-(dimethylamino)phenyl]-5-(1H-1,2,4-triazol-5-yl)pyrimidine-2-thiol] was tested, and the % cell growth at 10 µM ([1]; Homo sapiens) was 103%, the % growth at 10 µM ([2]; Homo sapiens) was 84.4% and the % growth at 10 µM ([3]; Homo sapiens, K562, one dose 10^-5 M) was 89.8%. For the same compound, the activity at 10 µM [4, 60] was 100%, the % growth at 10 µM ([5]; Homo sapiens) was 109% and the percent cell growth at 10 µM ([6]; Homo sapiens) was 85.7%. The % growth at 10 µM ([7]; Homo sapiens) was 108%, the % cell growth at 10 µM ([8]; Homo sapiens) was 121% and the % growth at 10 µM ([9]; Homo sapiens) was 103%. For the same compound, the % growth at 10 µM ([10]; Homo sapiens) was 100%, the % growth at 10 µM ([11]; Homo sapiens) was 110% and the activity at 10 µM [12, 60] was 108%. It also gave an activity at 10 µM [13, 60] of 111%, a % growth at 10 µM ([14]; Homo sapiens) of 101% and a % growth at 10 µM ([15]; Homo sapiens) of 116%. It also gave a % growth at 10 µM ([16]; Homo sapiens) of 112%, an activity at 10 µM [17, 60] of 102% and an activity at 10 µM [18, 60] of 116%. The % growth at 10 µM ([19]; Homo sapiens, HT-29, one dose 10^-5 M) was 111%, the % growth at 10 µM ([20]; Homo sapiens) was 105% and the % growth at 10 µM ([21]; Homo sapiens) was 106%. The activity at 10 µM [22, 60] was 107%, the % cell growth at 10 µM ([23]; Homo sapiens) was 104% and the % growth at 10 µM ([24]; Homo sapiens) was 108%. For the same compound, the activity at 10 µM [25, 60] was 102%, the % growth at 10 µM ([26]; Homo sapiens, U-251, one dose 10^-5 M) was 111% and the activity at 10 µM [27, 60] was 109%. For the same compound, the % growth at 10 µM ([28]; Homo sapiens) was 96.7%, the % growth at 10 µM ([29]; Homo sapiens) was 105% and the activity at 10 µM [30, 60] was 113%. The % growth at 10 µM ([31]; Homo sapiens) was 116%, the % cell growth at 10 µM ([32]; Homo sapiens) was 119% and the activity at 10 µM [33, 60] was 108%. It also gave a percent cell growth at 10 µM ([34]; Homo sapiens) of 113%, a % growth at 10 µM ([35]; Homo sapiens) of 102% and an activity at 10 µM ([36]; Homo sapiens, IGROV-1, one dose 10^-5 M, read-out: % growth) of 109%. For the same compound, the % growth at 10 µM ([37]; Homo sapiens) was 111%, the % growth at 10 µM ([38]; Homo sapiens) was 115% and the percent cell growth at 10 µM ([39]; Homo sapiens) was 120%. The % growth of cells at 10 µM ([40]; Homo sapiens) was 113%, the cell growth percent at 10 µM ([41]; Homo sapiens) was 115% and the % growth at 10 µM ([42]; Homo sapiens) was 103%. For the same compound, the % growth at 10 µM ([43]; Homo sapiens) was 96.3%, the % growth at 10 µM ([44]; Homo sapiens) was 131% and the % growth at 10 µM ([45]; Homo sapiens) was 119%. It also gave a % growth at 10 µM ([46]; Homo sapiens, CAKI-1, 48 h) of 89.7%, an activity at 10 µM ([47]; Homo sapiens, RXF 393, 48 h, read-out: % growth) of 113% and a % growth at 10 µM ([48]; Homo sapiens) of 106%. For the same compound, the % cell growth at 10 µM ([49]; Homo sapiens) was 117%, the % cell growth at 10 µM ([50]; Homo sapiens, UO-31, 48 h) was 93.9% and the percent cell growth at 10 µM ([51]; Homo sapiens) was 102%. For the same compound, the % growth at 10 µM ([52]; Homo sapiens) was 115%, the activity at 10 µM [53, 60] was 96.6% and the % growth at 10 µM ([54]; Homo sapiens) was 107%. For the same compound, the activity at 10 µM [55, 60] was 113%, the % cell growth at 10 µM ([56]; Homo sapiens) was 98.1% and the activity at 10 µM ([57]; Homo sapiens, T47D, read-out: % growth) was 109%. The percent cell growth at 10 µM ([58]; Homo sapiens) was 110%, the activity at 10 µM ([59]; Homo sapiens, 60 cell, 48 h, read-out: Mean % growth) was 107% and the “activity on all 60 cancer cell lines tested (in words)” value [59] was “weak activity”.
